Data published in paper PMC10082729, “First study on in vitro antiviral and virucidal effects of flavonoids against feline infectious peritonitis virus at the early stage of infection” (Veterinary World, 2023).
Values after ≈ are worked out from the molar mass of the structure shown. Where two headings read alike, the source gives them in different places.

Assays:
[1] = in vitro; details: cat
[2] = test system: Influenza A virus; details: in vitro; cited from earlier work
[3] = test system: SARS-CoV 3a channel protein; details: in vitro; cited from earlier work
[4] = test system: FIPV; assay: Post-viral entry assay, FIPV-infected cells by IPMA; details: for selectivity ratio at 24 h: cat
[5] = test system: CRFK cells; assay: Cell cytotoxicity and cell viability (MTS assay); details: 24 h
[6] = test system: SARS-CoV-2 3CL^pro; set-up: method as in PMID 32963564; details: in vitro; cited from earlier work
[7] = test system: Zika virus; set-up: method as in PMID 27344138; details: in vitro; cited from earlier work
[8] = test system: Hepatitis B virus; details: in vitro; cited from earlier work
[9] = test system: FIPV; assay: Pre-compound assay; type: cell-based, feline infectious peritonitis virus; details: cells pretreated 2 h, then FIPV 2 h, 24-HPI, crystal violet and IPMA
[10] = test system: FIPV; assay: Penetration assay; type: cell-based, feline infectious peritonitis virus; details: FIPV bound at 4°C 1 h, compound added at 37°C, 24 h
[11] = test system: FIPV; assay: Attachment assay; type: cell-based, feline infectious peritonitis virus; details: co-adsorbed at 4°C for 1 h, 24-HPI
Description: (§1) Crandell–Rees feline kidney cells were seeded into a 96-well plate at 1.8 × 10^4 cells/well and cultured in MEM containing 7% FBS. Pre-compound, attachment, penetration, post-viral entry, and virucidal assays were performed based on each step of viral infection. […] For the antiviral activity assay, FIPV was used at 50 TCID50/well in all experiments. Crandell–Rees feline kidney cells were inoculated with FIPV and treated with 0.1% DMSO as vehicle control. GC376 (TargetMol®, Wellesley Hills, MA, USA) was used as the FIPV-specific drug control. Three experiments were performed in duplicate wells for each compound.
To determine whether the compounds could interfere with virus binding to the host cells, CRFK cells in a 96-well plate were prechilled at 4°C for 1 h, and cotreated with the FIPV inoculum and the diluted compounds or controls at 4°C for 1 h to allow virus binding, but not entry to the host cells.
For initial screening, FIPV infection was determined using crystal violet staining for all antiviral assays. Briefly, the supernatants were removed from the compound-treated and FIPV-infected CRFK and control cells, and the cells were fixed with cold methanol at room temperature (25°C) for 30 min. […] Five to ten images of positive FIPV-infected cells were recorded at a magnification of 100× using a phase-contrast inverted microscope (Olympus IX73). […]

[12] = test system: FIPV 3CL^pro; details: cited from earlier work
[13] = test system: Marek’s disease virus; set-up: method as in PMID 33008383; details: at 20 µg/mL; cited from earlier work
[14] = test system: SARS-CoV-2; details: in vitro, cited from earlier work
[15] = test system: Herpes simplex virus type 1; details: in vitro; cited from earlier work
[16] = test system: FMDV 3C^pro; details: cited from earlier work
[17] = test system: Foot-and-mouth disease virus; details: virus and compound cotreated before incubating with cells; read-out: EC50 (virucidal, cotreatment); cited from earlier work
[18] = test system: Foot-and-mouth disease virus; details: in vitro, post-viral entry; cited from earlier work
[19] = test system: FIPV; assay: Time-of-addition (ToA) assay, RT-qPCR; type: cell-based, feline infectious peritonitis virus
[20] = test system: FIPV; assay: Cotreatment (virucidal) assay, IPMA; type: cell-based, feline infectious peritonitis virus; details: Alphacoronavirus 1, FIPV and compound coincubated with cells at 37°C for 2 h, 24 h
[21] = test system: FIPV; assay: Virucidal effect at different time points, TCID50 titration; type: cell-based, feline infectious peritonitis virus; details: 75 μM, direct incubation with FIPV at 37°C, compared with untreated control
Description: Feline infectious peritonitis virus inoculum at 50 TCID50/mL was directly incubated at the maximum concentrations of the compounds that were non-cytotoxic at 37°C in a 1.5 mL microcentrifuge tube for 0, 15, 30, 60, and 120 min. After the indicated incubation, the mixtures of virus and compounds were immediately subjected to viral titration according to Reed and Muench’s method. Viral titers in compound-treated wells were compared with the untreated control.

[22] = test system: FIPV; assay: Post-viral entry assay, viral load by RT-qPCR; type: cell-based, feline infectious peritonitis virus; details: Alphacoronavirus 1, read-out: inhibition of viral copy numbers
Description: as §1
To determine whether the compounds could inhibit viral replication and translation in the host cells after infection, CRFK cells were inoculated with FIPV at 37°C for 2 h for viral adsorption.
Intracellular and extracellular FIPV from infected CRFK cells was determined using RT-qPCR, as described. […] A standard curve of viral copy numbers was generated from the plasmid containing the FIPV 3′UTR sequence by 10-fold serially diluting the plasmid from […] plasmid molecules/μL and using it for viral load quantification. Quantitative polymerase chain reaction was performed from two biological replicates and three independent experiments were performed.

[23] = test system: Coxsackievirus B3; set-up: method as in PMID 24963331; details: in vitro; cited from earlier work
[24] = test system: Coxsackievirus B3; set-up: method as in PMID 24963331; details: cited from earlier work
[25] = test system: CRFK cells; details: cat, 24 h
[26] = test system: Enterovirus A71; set-up: method as in PMID 19537794; details: in vitro, at 10 µM; cited from earlier work
[27] = test system: Human immunodeficiency virus reverse transcriptase; set-up: method as in PMID 21730371; details: in vitro; cited from earlier work
[28] = test system: SARS-CoV-2 RdRp; details: in vitro; cited from earlier work
[29] = test system: African swine fever virus; details: in vitro, at 10 µg/mL; cited from earlier work
[30] = post-viral entry, FIPV 50 TCID50/well in CRFK cells, 24-HPI, IPMA

Molecule: O=c1cc(-c2ccc(O)cc2)oc2cc(O)cc(O)c12 [Apigenin]
- CC50 at 24 h ([1]; CC50): 22.2 µM
- EC50 [2]: 5 to 20 µM

Molecule: O=C(/C=C/c1ccc(O)cc1)OC[C@H]1O[C@@H](Oc2c(-c3ccc(O)cc3)oc3cc(O)cc(O)c3c2=O)[C@H](O)[C@@H](O)[C@@H]1O [Tiliroside]
- IC50 [3]: 20 µM
- CC50 at 24 h [1]: 65.2 µM

Molecule: O=c1c(-c2ccc(O)cc2)coc2c([C@@H]3O[C@H](CO)[C@@H](O)[C@H](O)[C@H]3O)c(O)ccc12 [Puerarin]
- CC50 at 24 h ([1]; CC50): 195 µM
- EC50 [2]: 52.1 µM

Molecule: C[C@@H]1O[C@@H](OC[C@H]2O[C@@H](Oc3c(-c4ccc(O)c(O)c4)oc4cc(O)cc(O)c4c3=O)[C@H](O)[C@@H](O)[C@@H]2O)[C@H](O)[C@H](O)[C@H]1O [Rutin]
- CC50 at 24 h ([1]; CC50): > 200 µM

Molecule: O=C(O[C@@H]1Cc2c(O)cc(O)cc2O[C@@H]1c1cc(O)c(O)c(O)c1)c1cc(O)c(O)c(O)c1 [Epigallocatechin gallate]
- Selective index CC50/EC50 ([4]; post-viral entry, CRFK cells): 3.57
- EC50 [4, 30]: 79.07 ± 0.01 µM
- EC90 [4, 30]: 196.5 ± 1.96 µM
- CC10 [5]: 84.98 ± 1.93 µM
- CC50 [5]: 282.2 ± 0.12 µM
- IC50 [6]: 7.58 µg/mL (≈ 16.5 µM)
- EC50 [7]: 21.4 µM
- EC50 [8]: < 10 µM

Molecule: CC(C)C[C@H](NC(=O)OCc1ccccc1)C(=O)N[C@@H](C[C@@H]1CCNC1=O)C(O)S(=O)(=O)[O-].[Na+] (some centres unmarked) [GC376]
- cell protection (prophylactic) effect [9]: did not possess the prophylactic and virus attachment effects
- effect on FIPV penetration [10]: inhibited FIPV replication at high concentrations of up to 50 μM
- effect on FIPV binding (attachment) [11]: did not possess the prophylactic and virus attachment effects

Molecule: COc1cc(O)c2c(=O)cc(-c3ccc(O)c(O)c3)oc2c1 [7-methylluteolin]
- IC50 [12]: 28.5 ± 4.2 µM

Molecule: O=C(O)[C@H]1O[C@@H](Oc2cc3oc(-c4ccccc4)cc(=O)c3c(O)c2O)[C@H](O)[C@@H](O)[C@@H]1O [Baicalin]
- virucidal effect [13]: Virucidal effect
- CC50 at 24 h ([1]; CC50): > 200 µM
- EC50 [14]: 8 to 9 µM

Molecule: Epicatechin-3-O-gallate
- EC50 [15]: 4 µM

Molecule: COc1ccc([C@@H]2CC(=O)c3c(O)cc(O[C@@H]4O[C@H](CO[C@@H]5O[C@@H](C)[C@H](O)[C@@H](O)[C@H]5O)[C@@H](O)[C@H](O)[C@H]4O)cc3O2)cc1O [Hesperidin]
- viral titer reduction [2]: Influenza A virus (in vitro: viral titer reduction at 3 log10 TCID50/0.1 mL)

Molecule: COc1ccc(-c2cc(=O)c3c(O)cc(O)c(-c4cc(-c5cc(=O)c6c(O)cc(O)cc6o5)ccc4OC)c3o2)cc1 [Isoginkgetin]
- IC50 [16]: 39 µM
- EC50 ([4]; Alphacoronavirus 1, CRFK): 4.77 ± 0.09 µM
- EC90 ([4]; Alphacoronavirus 1, CRFK): 28.8 ± 1.46 µM
- selectivity ratio at 24 h ([4]; Selective index CC50/EC50, post-viral entry, CRFK cells): 41.8
- EC50 [17]: 2.01 ± 0.07 µM
- CC10 [5]: 77.43 ± 2.52 µM
- EC50 [18]: 1.93 ± 0.21 µM
- time of addition of maximal efficiency ([19]; 28.82 μM, harvested at 10-HPI, RT-qPCR): 2–4 HPI
- effect on FIPV ([19]; added at 0-HPI, 28.82 μM, RT-qPCR at 10-HPI): major inhibitory effect
- time of addition at which FIPV replication is inhibited ([19]; compound at EC90, harvested at 10-HPI, RT-qPCR): 0–6 HPI
- EC50 [20]: 40.6 ± 1.5 µM
- decrease of viral titer ([21]; 60 min): 2 log10 TCID50/mL
- decrease of viral titer ([21]; 120 min): 1.89 log10 TCID50/mL
- inhibition at 10 µM [22]: > 90%
- CC50 at 24 h [1]: 199.4 ± 0.33 µM
- viability at 24 h, 75 µM [1]: ≥ 90%
- EC50 ([14]; infected Vero cells): 22.8 µM

Molecule: O=c1cc(-c2ccc(O)c(-c3c(O)cc(O)c4c(=O)cc(-c5ccc(O)cc5)oc34)c2)oc2cc(O)cc(O)c12 [Amentoflavone]
- EC50 ([4]; Alphacoronavirus 1, CRFK): 144.1 ± 0.01 µM
- EC90 ([4]; Alphacoronavirus 1, CRFK): 242.9 ± 2.4 µM
- selectivity ratio at 24 h [4]: 1.37
- EC50 [23]: 25 µM
- IC50 (virucidal) [24]: 19 to 41 µg/mL
- CC50 at 24 h ([1]; CC50): 197 ± 2.29 µM
- CC10 [25]: 155.50 ± 2.19 µM
- EC50 [15]: 11.1 to 28.2 µM

Molecule: O=C(O[C@@H]1Cc2c(O)cc(O)cc2O[C@H]1c1cc(O)c(O)c(O)c1)c1cc(O)c(O)c(O)c1 [Gallocatechin Gallate]
- virus reduction [26]: 56%
- EC50 [27]: 3.5 µM
- CC50 at 24 h [1]: > 200 µM

Molecule: O=c1c(O)c(-c2ccc(O)c(O)c2)oc2cc(O)cc(O)c12 [Quercetin]
- CC50 at 24 h [1]: > 200 µM
- IC50 [28]: 6.9 µM

Molecule: COc1ccc(-c2cc(=O)c3c(O)cc(O[C@@H]4O[C@H](CO[C@@H]5O[C@@H](C)[C@H](O)[C@@H](O)[C@H]5O)[C@@H](O)[C@H](O)[C@H]4O)cc3o2)cc1O [Diosmin]
- CC50 at 24 h ([1]; CC50): > 200 µM
- inhibition [29]: African swine fever virus (in vitro: 40% inhibition at 10 µg/mL)
